Assays:
[1] = molecular target: T1, TDO (Homo sapiens, UniProt P48775); assay: hTDO biochemical coupled assay; conditions: 330 μM L-tryptophan, 17 minutes, room temperature; read-out: hTDO biochemical assay pIC50 (converted)
Text: Two different assays were employed: 1. a cell-based assay for detecting the effect of test compounds on kynurenine production in two different cancer cell types. This assay utilised cancer cells which expressed either TDO or IDO and as such was used as a means of testing compound activity at these two enzymes in a cell-based context. 2. a TDO and IDO biochemical coupled assay which utilised recombinantly produced and purified TDO and IDO enzymes in combination with the enzyme formamidase. This coupled enzyme system allowed conversion of N-formylkynurenine produced by TDO or IDO activity to kynurenine which was then quantified by fluorescence following addition of Erhlich's Reagent The protocols for these are set out below.

[2] = molecular target: T2, IDO (Homo sapiens, UniProt P14902); assay: hIDO biochemical coupled assay; conditions: 45 μM L-tryptophan, 17 minutes, room temperature; read-out: hIDO biochemical assay pIC50 (converted)
[3] = molecular target: T1, TDO; assay: A172 kynurenine cell-based assay; parameters: This assay utilised cancer cells which expressed either TDO or IDO; endogenous in cells; host or cells: A172 (human glioblastoma); conditions: A172 human glioblastoma cells, 48 hours, 500 μM L-tryptophan; read-out: A172 Kynurenine cell based assay pIC50 (converted)
Outline: (§1)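 Cellular kynurenine production, TDO via A172 glioblastoma and IDO via IFN-γ-stimulated SKOV3 ovarian adenocarcinoma cells, was quantified after 48 hours' compound treatment in 500 μM L-tryptophan medium, using Erhlich's reagent and absorbance at 490 nm.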

[4] = molecular target: T2, IDO; assay: SKOV3 kynurenine cell-based assay (IDO induced by IFN-γ); parameters: IDO expression was induced in the SKOV3 cells by the addition of 500 ng/ml IFN-γ; endogenous in cells; host or cells: SKOV3 (human ovarian adenocarcinoma), induced with IFN-γ; conditions: SKOV3 human ovarian adenocarcinoma cells, 500 ng/ml IFN-γ, 48 hours, 500 μM L-tryptophan; read-out: SKOV3 Kynurenine cell based assay pIC50 (converted)
Outline: as §1

T2 sequence (P14902 whole entry): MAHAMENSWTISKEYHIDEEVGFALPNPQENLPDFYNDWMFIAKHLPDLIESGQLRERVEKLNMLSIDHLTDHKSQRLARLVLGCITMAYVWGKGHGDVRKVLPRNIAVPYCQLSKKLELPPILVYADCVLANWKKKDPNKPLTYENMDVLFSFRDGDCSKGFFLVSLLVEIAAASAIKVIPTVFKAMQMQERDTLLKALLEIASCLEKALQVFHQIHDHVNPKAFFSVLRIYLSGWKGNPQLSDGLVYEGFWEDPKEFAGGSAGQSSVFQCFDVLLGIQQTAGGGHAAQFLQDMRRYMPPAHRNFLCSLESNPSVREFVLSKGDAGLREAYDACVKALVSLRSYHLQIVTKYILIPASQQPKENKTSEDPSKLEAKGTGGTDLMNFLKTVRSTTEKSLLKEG
T1 sequence (P48775 whole entry): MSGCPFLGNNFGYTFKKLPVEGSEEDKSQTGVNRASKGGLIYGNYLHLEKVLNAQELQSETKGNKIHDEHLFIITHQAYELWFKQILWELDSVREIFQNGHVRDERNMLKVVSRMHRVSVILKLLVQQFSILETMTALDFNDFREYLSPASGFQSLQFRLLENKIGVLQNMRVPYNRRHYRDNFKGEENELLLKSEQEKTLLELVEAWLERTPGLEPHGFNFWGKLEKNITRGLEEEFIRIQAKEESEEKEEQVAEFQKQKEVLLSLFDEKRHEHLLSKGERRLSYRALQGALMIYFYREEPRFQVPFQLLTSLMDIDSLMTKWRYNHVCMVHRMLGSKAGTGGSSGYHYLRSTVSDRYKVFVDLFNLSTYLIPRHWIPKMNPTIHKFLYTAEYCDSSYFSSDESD

Row | SMILES | IC50 [1] [µM] | IC50 [2] [µM] | IC50 [3] [µM] | IC50 [4] [µM]
1 | CS(=O)(=O)N1CCC(c2cc(C3CCOCC3)cc3[nH]ncc23)CC1 [Compound 325] | > 100 | > 100 | 32.4 to 100 | 32.4 to 100
2 | CCc1cc(C2CCN(S(C)(=O)=O)CC2)c2cn[nH]c2c1 [Compound 326] | < 3.16 | 3.24 to 31.6 | 3.24 to 31.6 | 3.24 to 31.6
3 | Clc1cc(N2CCOCC2)c2cn[nH]c2c1 [Compound 327] | 3.24 to 31.6 | > 100 | 3.24 to 31.6 | 3.24 to 31.6
4 | Clc1cc(N2CCc3[nH]ncc3C2)c2cn[nH]c2c1 [Compound 328] | < 3.16 | > 100 | < 3.16 | 3.24 to 31.6
5 | O=C1NC2(CCN(c3cc(Cl)cc4[nH]ncc34)CC2)C(=O)N1CCO [Compound 330] | < 3.16 | < 3.16 | < 3.16 | < 3.16
6 | O=C1NC2(CCN(c3cc(Cl)cc4[nH]ncc34)CC2)C(=O)N1Cc1ccccc1 [Compound 331] | < 3.16 | < 3.16 | < 3.16 | < 3.16
7 | CN1CCN(c2cc(Cl)cc3[nH]ncc23)CC1=O [Compound 332] | < 3.16 | > 100 | < 3.16 | > 100
8 | CS(=O)(=O)N1CCC(C(O)c2cc(Cl)cc3[nH]ncc23)CC1 (stereo not shown) [Compound 333] | < 3.16 | > 100 | 3.24 to 31.6 | 32.4 to 100
9 | CC1(C)CN(c2cc(C#N)cc3[nH]ncc23)CCN1S(C)(=O)=O [Compound 334] | < 3.16 | < 3.16 | < 3.16 | 3.24 to 31.6
10 | CC(=O)NC1CCN(c2cc(Cl)cc3[nH]ncc23)CC1(C)C (stereo not shown) [Compound 335] | < 3.16 | 3.24 to 31.6 | < 3.16 | 3.24 to 31.6
11 | CC1(C)CN(c2cc(Cl)cc3[nH]ncc23)CCC1NS(C)(=O)=O (stereo not shown) [Compound 336] | < 3.16 | 3.24 to 31.6 | < 3.16 | 3.24 to 31.6
12 | CC(=O)N(C)c1cc(C2CCN(S(C)(=O)=O)CC2)c2cn[nH]c2c1 [Compound 337] | > 100 | > 100 | > 100 | 3.24 to 31.6
13 | CN(c1cc(C2CCN(S(C)(=O)=O)CC2)c2cn[nH]c2c1)S(C)(=O)=O [Compound 338] | > 100 | > 100 | 3.24 to 31.6 | > 100
14 | Clc1cc(N2CCC(n3cccn3)CC2)c2cn[nH]c2c1 [Compound 339] | < 3.16 | < 3.16 | < 3.16 | 3.24 to 31.6
15 | CS(=O)(=O)N1CCN(c2cc(C(F)(F)F)cc3[nH]ncc23)C2CCCCC21 (stereo not shown) [Compound 340] | > 100 | > 100 | 3.24 to 31.6 | 32.4 to 100
16 | CS(=O)(=O)Nc1ccc2c(c1)CCN(c1cc(Cl)cc3[nH]ncc13)C2 [Compound 342] | < 3.16 | > 100 | < 3.16 | 3.24 to 31.6
17 | Clc1cc(N2CCc3cnccc3C2)c2cn[nH]c2c1 [Compound 343] | < 3.16 | > 100 | < 3.16 | 32.4 to 100
18 | O=C1NCC2(CCN(c3cc(Cl)cc4[nH]ncc34)CC2)O1 [Compound 344] | < 3.16 | 3.24 to 31.6 | < 3.16 | 3.24 to 31.6
19 | Clc1cc(N2CC=CCC2)c2cn[nH]c2c1 [Compound 345] | < 3.16 | 3.24 to 31.6 | < 3.16 | 3.24 to 31.6
20 | Clc1cc(N2CCc3ccncc3C2)c2cn[nH]c2c1 [Compound 346] | < 3.16 | > 100 | < 3.16 | 3.24 to 31.6

Row | SMILES | IC50 [1] [µM] | IC50 [2] [µM] | IC50 [3] [µM] | IC50 [4] [µM]
21 | CS(=O)(=O)N1CCC(n2cc(-c3cc(Cl)cc4[nH]ncc34)cn2)CC1 [Compound 347] | < 3.16 | > 100 | < 3.16 | 3.24 to 31.6
22 | CC(=O)N1CCC(n2cc(-c3cc(Cl)cc4[nH]ncc34)cn2)CC1 [Compound 348] | < 3.16 | > 100 | < 3.16 | 3.24 to 31.6
23 | CS(=O)(=O)N1CCC2(CCN(c3cc(Cl)cc4[nH]ncc34)CC2)C1 [Compound 349] | < 3.16 | 32.4 to 100 | < 3.16 | 32.4 to 100
24 | CC(=O)N1CCC2(CCN(c3cc(Cl)cc4[nH]ncc34)CC2)C1 [Compound 350] | < 3.16 | 32.4 to 100 | < 3.16 | 3.24 to 31.6
25 | CS(=O)(=O)N1CC2(CCN(c3cc(Cl)cc4[nH]ncc34)CC2)C1 [Compound 351] | < 3.16 | 32.4 to 100 | < 3.16 | 3.24 to 31.6
26 | CC(=O)N1CCC2(CC1)CCN(c1cc(Cl)cc3[nH]ncc13)CC2 [Compound 352] | < 3.16 | 3.24 to 31.6 | < 3.16 | < 3.16
27 | Clc1cc(C2CCCCC2)c2cn[nH]c2c1 [Compound 353] | < 3.16 | > 100 | < 3.16 | 32.4 to 100
28 | O=c1[nH]c2ccccc2n1C1CCN(c2cc(Cl)cc3[nH]ncc23)CC1 [Compound 354] | < 3.16 | > 100 | < 3.16 | 3.24 to 31.6
29 | CS(=O)(=O)N1CCC2(CCN(c3cc(Cl)cc4[nH]ncc34)CC2)CC1 [Compound 355] | < 3.16 | 32.4 to 100 | < 3.16 | 3.24 to 31.6
30 | Cc1nc2c(n1C)CN(c1cc(Cl)cc3[nH]ncc13)CC2 [Compound 356] | 3.24 to 31.6 | > 100 | 3.24 to 31.6 | 3.24 to 31.6
31 | Cc1nc2c(n1C)CN(c1cc(C(F)(F)F)cc3[nH]ncc13)CC2 [Compound 357] | 3.24 to 31.6 | > 100 | < 3.16 | < 3.16
32 | CC(=O)Nc1ccc2c(c1)CCN(c1cc(Cl)cc3[nH]ncc13)C2 [Compound 358] | < 3.16 | > 100 | < 3.16 | 3.24 to 31.6
33 | CC(=O)N1CC2(CCN(c3cc(Cl)cc4[nH]ncc34)CC2)C1 [Compound 359] | < 3.16 | 3.24 to 31.6 | < 3.16 | 3.24 to 31.6
34 | Cn1cc2c(n1)CCN(c1cc(Cl)cc3[nH]ncc13)C2 [Compound 360] | < 3.16 | 32.4 to 100 | < 3.16 | 3.24 to 31.6
35 | NS(=O)(=O)N1CCC2(CCN(c3cc(Cl)cc4[nH]ncc34)CC2)C1 [Compound 361] | < 3.16 | 3.24 to 31.6 | < 3.16 | 3.24 to 31.6
36 | CN(C)C(=O)CC1CCN(c2cc(Cl)cc3[nH]ncc23)CC1 [Compound 362] | < 3.16 | > 100 | 3.24 to 31.6 | 3.24 to 31.6
37 | NS(=O)(=O)N1CCC2(CCN(c3cc(Cl)cc4[nH]ncc34)CC2)CC1 [Compound 363] | < 3.16 | 32.4 to 100 | < 3.16 | 3.24 to 31.6
38 | CNC(=O)CC1CCN(c2cc(Cl)cc3[nH]ncc23)CC1 [Compound 364] | < 3.16 | > 100 | < 3.16 | 3.24 to 31.6
39 | Clc1cc(N2CCN(c3nccs3)CC2)c2cn[nH]c2c1 [Compound 365] | < 3.16 | > 100 | < 3.16 | 3.24 to 31.6
40 | Cn1cc(-c2cc(Cl)cc3[nH]ncc23)cn1 [Compound 366] | 3.24 to 31.6 | > 100 | < 3.16 | 3.24 to 31.6
